The values that follow come from US6143325A, “Nefazodone dosage form” (priority 1999, dated 2000).

Counter-ions that a name gives are not always drawn.

What is called Tmax is the time from dosing to the highest level.

The subject of series [1] is cytochrome P450 (CPY) 3A4. Particulars: cited from earlier work.
For another series, the system named is CYP2D6. Particulars: cited from earlier work.
In a further series the test system is rodents. Particulars: in vivo; cited from earlier work.
A further series relates to rats. Particulars: mediated through 5-HT2C or 5HT2B receptors; cited from earlier work.
A further series concerns humans. The note with it: in vivo; cited from earlier work.
The conditions of series [2]: cited from earlier work.
For series [3] the following is noted: cited from earlier work. This is another data set of the same source.
The test system of series [4] is serotonin 5-HT2 receptors. Particulars: in vivo; cited from earlier work.
A further series concerns serotonin re-uptake. Particulars: in vivo; cited from earlier work.
Another series has as its system monoamine oxidase. Particulars: cited from earlier work.
The conditions of series [5]: relative to tricyclic antidepressants; cited from earlier work.
The conditions of series [6]: clinically effective doses of up to 450 mg three times a day; cited from earlier work.
The conditions of series [7]: USP criteria; cited from earlier work.
Series [8] in a line: nefazodone and metabolite pharmacokinetics in human volunteers: ER v. IR. The note with it: plasma, po.

`CC(O)c1nn(CCCN2CCN(c3cccc(Cl)c3)CC2)c(=O)n1CCOc1ccccc1` (centres unmarked) [hydroxy-nef, hydroxynefazodone]: the “metabolism by CYP3A4” value in series [1] is listed as “responsible for the further metabolism”.
With `Clc1cccc(N2CCNCC2)c1` [mCPP, m-chlorophenylpiperazine], the “metabolism by CYP2D6” value in the series with CYP2D6 is on record as “responsible for the metabolism of mCPP”. The effects in rodents result in the series on rodents was “anxiogenic-like properties, causes hypoactivity, hypophagia, oral dyskinesia, penile erection and hyperthermia”. In addition, in the series on rats, the hypoglycemic effect result was “dose-dependent hypoglycemic effect”. Also, in the series on humans, the effects in humans result was “increase anxiety in humans (and can cause panic attacks), may precipitate migraine attacks in those susceptible to such attacks, can disrupt sleep, be hypophagic in humans also and may have psychotogenic effects”.
For `O=c1[nH]n(CCCN2CCN(c3cccc(Cl)c3)CC2)c(=O)n1CCOc1ccccc1` [Dione], the “metabolism by CYP3A4” value in series [1] is listed as “responsible for the further metabolism”.
`CCc1nn(CCCN2CCN(c3cccc(Cl)c3)CC2)c(=O)n1CCOc1ccccc1` [Nefazodone, 2-[3-[4-(3-chlorophenyl)-1-piperazinyl]-propyl-]5-ethyl-2,4-dihydro-4-(2-phenoxy-ethyl)-3H-1,2,4-triazol-3-one hydrochloride]: in series [2] (in vivo), the first-pass metabolism result is reported as “significant first-pass metabolism”. Besides, the “kinetics (dose proportionality)” value in series [2] (plasma concentrations v. dose) was “non-linear kinetics”. In addition, the “dissociation constant (pKa)” value in series [3] was 6.4. The “effect on serotonin 5-HT2 receptors” value in [4] is recorded as “blocks serotonin 5-HT2 receptors”. Also, the serotonin re-uptake inhibition result in the series with serotonin re-uptake is recorded as “reversibly inhibits serotonin re-uptake”. Also, in the series on monoamine oxidase, the monoamine oxidase inhibition result is listed as “does not inhibit monoamine oxidase”. Moreover, the “anticholinergic, antihistamine, alpha-adrenergic and sedative activity” value in series [5] was “decreased anticholinergic, antihistamine, alpha-adrenergic and sedative activity”. Further, in [1], the “inhibition of CYP3A4” value was “inhibits cytochrome P450 (CPY) 3A4” and the “metabolism by CYP3A4” value is recorded as “metabolized by”. In addition, the tolerability entry in [6] was “well-tolerated”. For the same molecule, the solubility in water result in series [7] is “sparingly soluble”. In the series with CYP2D6, the “inhibition of CYP2D6” value is recorded as “weak inhibitor of CYP2D6”. Besides, the time to peak (Tmax) in series [8] (100 mg) is 2 h. In [8] (200 mg), the Tmax amounted to 5 h.
